This assay has as its target T1, PKN2 (PRK2) (Homo sapiens, UniProt Q16513).
T1 construct: purchased Thermo Fisher Scientific (Life Technologies) SelectScreen
Description: SelectScreen LanthaScreen. The class given is binding. The note with it: read-out: % displacement. The method in brief:
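Percent values come from Thermo SelectScreen profiling of NU5455, combining activity and binding assays. CSF1R was run in Z'LYTE format at Km app ATP, and CAMK1 in Adapta format with ATP listed at 10.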

T1 sequence (Q16513 whole entry): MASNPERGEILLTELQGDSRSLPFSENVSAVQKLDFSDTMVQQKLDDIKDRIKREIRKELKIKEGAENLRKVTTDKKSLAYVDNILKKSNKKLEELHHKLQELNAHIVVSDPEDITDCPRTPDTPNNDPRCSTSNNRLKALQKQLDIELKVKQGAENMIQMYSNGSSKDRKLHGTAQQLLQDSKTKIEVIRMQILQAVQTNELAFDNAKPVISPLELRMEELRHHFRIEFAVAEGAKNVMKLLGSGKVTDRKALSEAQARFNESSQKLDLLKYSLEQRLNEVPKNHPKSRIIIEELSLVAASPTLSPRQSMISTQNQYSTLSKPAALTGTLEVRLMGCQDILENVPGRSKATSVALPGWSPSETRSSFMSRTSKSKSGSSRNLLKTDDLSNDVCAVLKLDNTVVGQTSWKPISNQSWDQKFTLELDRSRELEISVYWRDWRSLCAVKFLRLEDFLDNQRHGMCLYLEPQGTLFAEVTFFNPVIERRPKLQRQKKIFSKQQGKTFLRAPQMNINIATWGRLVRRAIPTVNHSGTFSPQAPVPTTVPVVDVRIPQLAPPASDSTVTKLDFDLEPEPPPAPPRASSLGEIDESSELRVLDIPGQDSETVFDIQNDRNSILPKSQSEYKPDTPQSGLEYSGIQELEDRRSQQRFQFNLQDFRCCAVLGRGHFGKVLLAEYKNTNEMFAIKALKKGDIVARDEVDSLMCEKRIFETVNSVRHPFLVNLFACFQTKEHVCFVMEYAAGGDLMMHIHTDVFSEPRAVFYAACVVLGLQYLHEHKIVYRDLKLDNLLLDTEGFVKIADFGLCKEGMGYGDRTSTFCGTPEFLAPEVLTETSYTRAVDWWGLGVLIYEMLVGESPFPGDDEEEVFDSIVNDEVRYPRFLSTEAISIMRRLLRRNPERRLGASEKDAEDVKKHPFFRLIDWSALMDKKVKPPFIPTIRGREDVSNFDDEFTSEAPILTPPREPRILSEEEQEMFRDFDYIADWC

`CN(C(=O)CN1CCOCC1)c1ccc2sc3c(-c4cccc5c(=O)cc(N6CC7CCC(C6)O7)oc45)cccc3c2c1` [NU5455]: the inhibition at 1 µM is -1%.

(Values after article PMC6934184, “Selective DNA-PKcs inhibition extends the therapeutic index of localized radiotherapy and chemotherapy” (The Journal of Clinical Investigation, 2019).)
